SMILES strings stand for the structures. ≈ marks a conversion by molar mass, not a printed value.

As usually defined, the kinetic solubility is solubility judged after dilution from a stock solution rather than from solid.

The conditions of the data set: buffer; pH 7.4; 200.0 µM.
`CC(C)c1ccc(Nc2nc(Cl)nc(Cl)n2)cc1` showed a kinetic solubility of 28.5 µg/mL (≈ 101 µM).
Under `CCOC(=O)N1CCN(Cc2cc(Cl)c3cccnc3c2O)CC1` stands > 52.5 µg/mL; under `COc1ccc(CCC(C)NCc2ccc(C(F)(F)F)cc2)cc1` (stereo unspecified), 30.5 µg/mL (≈ 90.4 µM).
Consider `Cn1cc(S(=O)(=O)NCC2CCCO2)c(=O)n(C)c1=O` (stereo unspecified), for which the kinetic solubility was > 45.5 µg/mL.
Under `CC1CCCN(S(=O)(=O)c2cc(C(=O)NCc3ccco3)ccc2Cl)C1` (stereo unspecified) stands 52.6 µg/mL (≈ 133 µM); under `COC(=O)c1c(C)[nH]c(C=O)c1-c1ccccc1`, > 36.5 µg/mL; under `CS(=O)(=O)N(CC(=O)NC1CCCC1)C1CCCCC1`, > 45.4 µg/mL.
As for `Cc1ccccc1OCC(=O)NC(C)c1ccccc1` (stereo unspecified), the solubility (kinetic) came out at 39.8 µg/mL (≈ 148 µM).
On to `O=C1CC(=O)N(c2cccc(F)c2)C(=O)N1`, for which the solubility (kinetic) was > 33.3 µg/mL.
Under `C#CCn1c(C)cc(C)c(S(=O)(=O)c2ccccc2)c1=O` stands > 45.2 µg/mL; under `CC(NC(=O)C(C)N1C(=O)c2cccc([N+](=O)[O-])c2C1=O)c1ccccc1` (stereo unspecified), 28.3 µg/mL (≈ 77 µM); under `O=C(NCCCCc1ccccc1)c1ccc(Br)cc1`, < 0.7 µg/mL.
Under `O=C(Nc1ccc(C(=O)O)cc1)Nc1ccc([N+](=O)[O-])cc1` stands > 45.2 µg/mL; under `CCOc1ccccc1C1CC(=O)Nc2cc(OC)c(OC)cc21` (stereo unspecified), 0.9 µg/mL (≈ 2.75 µM); under `O=S(=O)(c1ccc(=S)[nH]c1)N1CCCC1`, > 36.6 µg/mL.
For the compound `Cc1ccn2c(C(=O)NN=C3CCCCCCC3)c(C)nc2c1`, the solubility (kinetic) was > 46.9 µg/mL.
Consider `CCc1cc2c(=O)n(-c3ccccc3)c(SCC(N)=O)nc2s1`, for which the solubility (kinetic) worked out at 2.8 µg/mL (≈ 8.11 µM).
Under `COc1ccc(C(C)=O)cc1COc1cccnc1[N+](=O)[O-]` stands 5.1 µg/mL (≈ 16.9 µM); under `CC(C)c1ccc(NC(=O)C2CC(=O)N(C3CCCC3)C2)cc1` (stereo unspecified), 36.1 µg/mL (≈ 115 µM); under `Cc1cc(SCC#N)nc2ccccc12`, 14.6 µg/mL (≈ 68.1 µM).
Under `CC(=O)N1CCN(C(=O)C2CCN(S(=O)(=O)c3ccccc3C(F)(F)F)CC2)CC1` stands > 67.1 µg/mL; under `COc1ccc(NC(=O)NCCCCc2ccccc2)cc1OC`, 0.6 µg/mL (≈ 1.83 µM); under `Cc1nc(SCc2ccccc2)c2oc3ccccc3c2n1`, < 0.3 µg/mL.
Under `COC(=O)c1cc(C(=O)c2ccc(C(C)(C)C)cc2)c[nH]1` stands 18.2 µg/mL (≈ 63.8 µM); under `O=C(COC(=O)c1c(F)cccc1F)c1ccc[nH]1`, 39.3 µg/mL (≈ 148 µM).
`O=C(CSc1nncs1)NNC(=O)c1ccccc1Br`: the solubility (kinetic) is > 56 µg/mL.
Under `COc1ccnc2c1c(=O)n(Cc1cccc(F)c1)c(=O)n2C` stands 37.9 µg/mL (≈ 120 µM).
Under `CC(=O)O[C@H](CC(=O)O)C[N+](C)(C)C.[Cl-]` stands > 36 µg/mL; under `COc1ccc(OCC(=O)c2c[nH]c3ccccc23)cc1`, < 0.6 µg/mL.
Under `COc1ccccc1N(CC(=O)N1CCOCC1)S(C)(=O)=O` stands > 49.3 µg/mL; under `CC1CCCN(C(=O)Cc2cccc3ccccc23)C1` (stereo unspecified), 38.3 µg/mL (≈ 143 µM); under `COc1cc(NC(=O)CCN2CC(C)OC(C)C2)cc(OC)c1` (stereo unspecified), 34.3 µg/mL (≈ 106 µM).
As for `COC(=O)Cn1cc(/C=C/[N+](=O)[O-])c2ccccc21`, the kinetic solubility worked out at 30.6 µg/mL (≈ 118 µM).
In the case of `CC(Oc1ccc2c(-c3ccccc3)cc(=O)oc2c1)C(=O)N1CCOCC1` (stereo unspecified), the solubility (kinetic) is > 56.9 µg/mL.
In the case of `O=C(CSCc1ccccc1)Nc1ccccc1`, the kinetic solubility is > 38.6 µg/mL.
Turning to `O=c1[nH]c(/C=C\c2ccc(O)c(O)c2)nc(O)c1[N+](=O)[O-]`, the solubility (kinetic) was > 43.7 µg/mL.
Under `O=C(/C=C/C(=O)NCc1cccs1)NCc1cccs1` stands 0.6 µg/mL (≈ 1.96 µM); under `CCN(CC)S(=O)(=O)c1cccc(C(=O)NC(C(=O)NCCc2ccccn2)C(C)C)c1` (stereo unspecified), > 69.1 µg/mL; under `O=[N+]([O-])c1ccc(Sc2ccccn2)nc1`, 34.9 µg/mL (≈ 150 µM).
As to `C=CCn1c(O)c(C(C)=NCC2CCCO2)c(=O)[nH]c1=O` (stereo unspecified), the solubility (kinetic) was > 44 µg/mL.
Under `O=C(CCCOc1ccccc1)Nc1cccc(S(=O)(=O)N2CCOCC2)c1` stands 57.6 µg/mL (≈ 142 µM); under `CC1(C)Cc2c(C#N)c(NCCO)nc(-c3ccco3)c2CO1`, 37.4 µg/mL (≈ 119 µM); under `O=C(O)CC1(CC(=O)NCc2cccc(Cl)c2)CCCCC1`, > 48.6 µg/mL.
Compound `CN1CCCN(C(=O)CSc2ccccc2)CC1` came in with a kinetic solubility of 39.3 µg/mL (≈ 149 µM).
Under `O=C(NCCOCc1ccccc1)C(c1ccccc1)c1ccccc1` stands 23.3 µg/mL (≈ 67.4 µM).
For the compound `COc1ccc(-n2c(=S)[nH]c3ncccc3c2=O)cc1`, the solubility (kinetic) is 1.5 µg/mL (≈ 5.26 µM).
Under `O=C(NC1CCSc2ccccc21)c1ccc(F)cc1` (stereo unspecified) stands 4.9 µg/mL (≈ 17.1 µM); under `CC(=O)c1cccc(OCC(=O)N2CCCc3ccccc32)c1`, 44.6 µg/mL (≈ 144 µM).
Under `COC(=O)c1sc(NC(=O)COc2c(C)cccc2C)nc1C` stands 0.4 µg/mL (≈ 1.2 µM).
Compound `Nc1nccnc1C(=O)OCC(=O)NC1CCCc2ccccc21` (stereo unspecified) yielded a kinetic solubility of 44.5 µg/mL (≈ 136 µM).
For the compound `COc1ccc(/C=N/OCC(=O)N2CCCC2)c(OC)c1`, the kinetic solubility was > 43.9 µg/mL.

The values are drawn from PubChem BioAssay AID1996.
